Earlier results as cited in US7632519B2, “TRPV1 agonist compounds, formulations, prodrugs, methods for using the same” (NeurogesX, Inc., priority 2005, dated 2009).

Details: oral dose levels of up to 2 mg/kg, humans

SMILES: COc1cc(CNC(=O)CCCC/C=C/C(C)C)ccc1O [capsaicin]
- adverse effects after oral dosing: without reported adverse effects
